Values belong to the molecule of their own block, whether it stands above or below them.
Columns and labels:
Type in all cases: in vivo
C57B1/6 mice = assay: open-field test, C57B1/6 mice (active type of emotional-stress reaction); conditions: i.p., doses that activate Balb/c mice
Excerpt: (§1) The main point of this approach consists in comparative analysis of the behavioural effects of tested compounds in two inbred strains of mice Balb/c and C57B1/6 with different hereditary types of emotional-stress reactions (ESR). The anxiolytic effect was estimated as the activation of the locomotor activity of animals with “passive” type of ESR (Balb/c mice). The main index describing the sedative properties of tested drugs was the inhibition of the locomotor activity of mice with “active” type of ESR (C57B1/6 strain). The anxioselectivity was evaluated according to coincidence of doses range which activated or inhibited the behavior of mice of different strains. Earlier this approach has been successfully used for estimation of anxioselective activity of such known drugs as phenazepam [Seredenin S. B. et al., Bull.Exp.Biol.Med., 1979, v.88, N7, p.38; Seredenin S. B. et al., Ann.Inst.Super.Sanita, 1990, v.26, N1, p.81-88], mexidol [Seredenin S. B. et al., Khimiko-Farmatsevt.Zhurnal, 1987, N2, p.134; Vironina T. A., Seredenin S. B., Ann.Inst.Super.Sanita, 1988, v.24, N3, p.461-466] and gidazepam [Seredenin S. B. et al., in: “Gidazepam” Kiev, Naukova Dumka, 1992, p.92; Seredenin S. B., Blednov Yu. A., Phys.Chem.Biol.Med., 1993, v.1, N1, p.53-60].
(§2) Male C57B1/6 and Balb/c mice (“Stolbovaya” animal farm), weighing 20-22 g were used. The animals were housed in a separate animal room in groups of ten and maintained on 12 h light-dark cycle (light from 8.00 till 20.00) with free access to standard food and water during two weeks before experiment. Testing was performed between 9.00 and 13.00. Every used compound was administered intraperitoneally in water solutions 30 min before testing (0,1 ml solution per 10 g of weight). The “open-field” apparatus consisted of cylinder closed from one end, illuminated by four 75 W lamps fixed to the walls 100 cm above the floor. The “open-field” apparatus was 100 cm in diameter and white-painted; the floor was marked with 3 black circles and some radial lines divided the floor into 16 peripheral and 8 central segments. 30 min after injection each animal was placed in the same peripheral square on the floor for 3 min of testing after 1 min exposure in the dark chamber. The following behavior variables were recorded: 1) the number of crossings in the peripheral area (peripheral activity); 2) the number of crossings in the central segments (central activity); 3) the number of rearings (vertical activity); 4) the emotionality was measured as the number of defecations during the test. The sum of all types of locomotor activity was marked as total activity. The t-Student test was used for statistical analysis.

Balb/c mice = assay: open-field test, Balb/c mice (passive type of emotional-stress reaction); design: key to Total activity: sum of all locomotor activity counts (crossings + rearings) in 3 min; conditions: for Number of defecations / Peripheral activity (crossings) / Total activity / Central activity (crossings) / Vertical activity (rearings): M ± mx; for effect on the behavior (locomotor activity) of Balb/c mice in open-field test, in words: i.p., screening
Excerpt: as §1, §2

outbred male mice = assay: rotarod test (myorelaxant activity); conditions: cut-off 120 sec
Description: The myorelaxant activity of choosen compounds were studied in the outbred male mice weighing 22-25 g in rotarod test [Voronina T. A. et al., in: “Phenazepam”, Naukova Dumka, Kiev, 1982, p.145]. The animals were placed on the horizontal rotarod (D=2 cm) calibrated for a fixed speed of 4 rpm. According to the rotarod experimental protocol, normal motor coordination was defined by the ability of the animals to remain on the rotarod for an arbitrarily selected time of 120 sec.

male outbred mice = assay: potentiation of sleep induced by sodium thiopental
Description: The possible hypnotic effects of choosen drugs was estimated according to method of potentiation of sleep induced by sodium thiopental. The male outbred mice weighing 20-25 g were injected i.p. with sodium thiopental at dose of 70 mg/kg. Two parameters were estimated: latent time of sleeping and duration of sleep. The used compounds were administered i.p. 30 min prior injection of sodium thiopental.

outbred male rats = assay: conflict Vogel test (punished licking of water); conditions: M ± mx
Description: The study of anxiolytic activity of chosen compounds was carried out in the experiments with outbred male rats weighing 180-200 g in standard conflict Vogel' procedure [Voronina T. A. et al., in: “Phenazepam”, Naukova Dumka, Kiev, 1982, p.89, 93, 146]. The main aim of the initial step of experiments was the training of rats to develop the feeling of thirst with following experience of water licking from bottle in the experimental chamber. The animals were deprived of water for 24 hours and were placed in the test chamber for 5-min adaptation period during which they had free access to the drinking bottle. After another 24 h deprivation period the rats were placed again in the test chamber and were allowed to drink water for 5 sec. Immediately afterwards drinking attempts were punished by electric shock (0,5 mA). Under this collision of drinking and protective reflexes the extremal situation was developed. In this situation the anxiety of punishment prevented the licking process. The number of shocks received throughout a 5-min experimental session was recorded.

[1] = 0.5 mg/kg i.p. 30 min before thiopental 70 mg/kg i.p.
[2] = 1.0 mg/kg i.p. 30 min before thiopental 70 mg/kg i.p.
[3] = 5.0 mg/kg i.p. 30 min before thiopental 70 mg/kg i.p.
[4] = 10.0 mg/kg i.p. 30 min before thiopental 70 mg/kg i.p.

duration of sleep after sodium thiopental (male outbred mice; [1]): 42.8 ± 13.5 min | latent time of sleep after sodium thiopental (male outbred mice; [1]): 3.0 ± 0.3 s | duration of sleep after sodium thiopental (male outbred mice; [2]): 32.5 ± 7.9 min | latent time of sleep after sodium thiopental (male outbred mice; [2]): 2.7 ± 0.3 s | duration of sleep after sodium thiopental (male outbred mice; [3]): 50.7 ± 11.0 min | latent time of sleep after sodium thiopental (male outbred mice; [3]): 2.8 ± 0.3 s | duration of sleep after sodium thiopental (male outbred mice; [4]): 45.1 ± 10.6 min | latent time of sleep after sodium thiopental (male outbred mice; [4]): 2.5 ± 0.1 s
SMILES: C=CCSc1nc2ccc(OCC)cc2[nH]1 [IV, 2-Allylthio-5-ethoxybenzimidazole]
effect on locomotor activity of C57B1/6 mice in open-field test, in words (C57B1/6 mice): without any changes in locomotor activity | Number of defecations (Balb/c mice; 0.1 mg/kg i.p.): 0.6 ± 0.5 | Peripheral activity (crossings) (Balb/c mice; 0.1 mg/kg i.p.): 12.6 ± 2.6 | Total activity (Balb/c mice; 0.1 mg/kg i.p.): 12.6 ± 2.6 | Peripheral activity (crossings) (Balb/c mice; 1.0 mg/kg i.p.): 11.4 ± 2.3 | Total activity (Balb/c mice; 1.0 mg/kg i.p.): 11.4 ± 2.3 | Number of defecations (Balb/c mice; 5.0 mg/kg i.p.): 1.7 ± 0.8 | Peripheral activity (crossings) (Balb/c mice; 5.0 mg/kg i.p.): 13.6 ± 3.5 | Total activity (Balb/c mice; 5.0 mg/kg i.p.): 13.6 ± 3.5 | Number of defecations (Balb/c mice; 10.0 mg/kg i.p.): 3.0 ± 0.7 | Peripheral activity (crossings) (Balb/c mice; 10.0 mg/kg i.p.): 9.5 ± 1.9 | Total activity (Balb/c mice; 10.0 mg/kg i.p.): 9.5 ± 1.9 | Number of defecations (Balb/c mice; 20.0 mg/kg i.p.): 2.5 ± 0.7 | Peripheral activity (crossings) (Balb/c mice; 20.0 mg/kg i.p.): 8.9 ± 2.0 | Total activity (Balb/c mice; 20.0 mg/kg i.p.): 8.9 ± 2.0 | effect on the behavior (locomotor activity) of Balb/c mice in open-field test, in words (Balb/c mice): able to activate the behavior of Balb/c mice | time of remaining on the rotarod (outbred male mice; 0.1 mg/kg): 120 + 0 sec | time of remaining on the rotarod (outbred male mice; 1.0 mg/kg): 120 + 0 sec | time of remaining on the rotarod (outbred male mice; 5.0 mg/kg): 120 + 0 sec | time of remaining on the rotarod (outbred male mice; 10.0 mg/kg): 120 + 0 sec | time of remaining on the rotarod (outbred male mice; 20.0 mg/kg): 120 + 0 sec | number of punished lickings (shocks received in 5-min session) (outbred male rats; 1.0 mg/kg i.p.): 29.7 ± 5.3 | number of punished lickings (shocks received in 5-min session) (outbred male rats; 5.0 mg/kg i.p.): 31.0 ± 5.6 | number of punished lickings (shocks received in 5-min session) (outbred male rats; 10.0 mg/kg i.p.): 35.8 ± 7.8 | number of punished lickings (shocks received in 5-min session) (outbred male rats; 20.0 mg/kg i.p.): 62.3 ± 19.5

duration of sleep after sodium thiopental (male outbred mice; [1]): 91.0 ± 17.8 min | latent time of sleep after sodium thiopental (male outbred mice; [1]): 2.5 ± 0.5 s | latent time of sleep after sodium thiopental (male outbred mice; [2]): 2.5 ± 0.2 s | duration of sleep after sodium thiopental (male outbred mice; [3]): 86.4 ± 13.9 min | latent time of sleep after sodium thiopental (male outbred mice; [3]): 2.2 ± 0.2 s | duration of sleep after sodium thiopental (male outbred mice; [4]): 70.6 ± 9.0 min | latent time of sleep after sodium thiopental (male outbred mice; [4]): 2.9 ± 0.4 s
SMILES: Cc1cc2nc(SCCN3CCCCC3)[nH]c2cc1C [XIV, 2-[2-(Piperidino)ethylthio]-5,6-dimethylbenzimidazole]
effect on locomotor activity of C57B1/6 mice in open-field test, in words (C57B1/6 mice): without any changes in locomotor activity | Central activity (crossings) (Balb/c mice; 0.1 mg/kg i.p.): 1.1 ± 0.7 | Number of defecations (Balb/c mice; 0.1 mg/kg i.p.): 1.3 ± 0.5 | Peripheral activity (crossings) (Balb/c mice; 0.1 mg/kg i.p.): 27.0 ± 6.3 | Total activity (Balb/c mice; 0.1 mg/kg i.p.): 28.2 ± 7.1 | Vertical activity (rearings) (Balb/c mice; 0.1 mg/kg i.p.): 0.1 ± 0.1 | Central activity (crossings) (Balb/c mice; 0.5 mg/kg i.p.): 4.7 ± 2.7 | Number of defecations (Balb/c mice; 0.5 mg/kg i.p.): 1.0 ± 0.4 | Peripheral activity (crossings) (Balb/c mice; 0.5 mg/kg i.p.): 44.4 ± 9.2 | Total activity (Balb/c mice; 0.5 mg/kg i.p.): 49.4 ± 10.7 | Vertical activity (rearings) (Balb/c mice; 0.5 mg/kg i.p.): 0.3 ± 0.3 | Central activity (crossings) (Balb/c mice; 1.0 mg/kg i.p.): 0.9 ± 0.8 | Number of defecations (Balb/c mice; 1.0 mg/kg i.p.): 2.9 ± 0.7 | Peripheral activity (crossings) (Balb/c mice; 1.0 mg/kg i.p.): 38.7 ± 4.8 | Total activity (Balb/c mice; 1.0 mg/kg i.p.): 39.7 ± 5.7 | Vertical activity (rearings) (Balb/c mice; 1.0 mg/kg i.p.): 0.1 ± 0.1 | Central activity (crossings) (Balb/c mice; 5.0 mg/kg i.p.): 2.8 ± 1.8 | Number of defecations (Balb/c mice; 5.0 mg/kg i.p.): 0.7 ± 0.7 | Peripheral activity (crossings) (Balb/c mice; 5.0 mg/kg i.p.): 58.7 ± 7.2 | Total activity (Balb/c mice; 5.0 mg/kg i.p.): 61.3 ± 9.0 | Number of defecations (Balb/c mice; 10.0 mg/kg i.p.): 2.0 ± 0.9 | Peripheral activity (crossings) (Balb/c mice; 10.0 mg/kg i.p.): 67.8 ± 11.1 | Total activity (Balb/c mice; 10.0 mg/kg i.p.): 67.8 ± 11.1 | Central activity (crossings) (Balb/c mice; 20.0 mg/kg i.p.): 3.4 ± 3.4 | Number of defecations (Balb/c mice; 20.0 mg/kg i.p.): 0.1 ± 0.1 | Peripheral activity (crossings) (Balb/c mice; 20.0 mg/kg i.p.): 17.3 ± 8.0 | Total activity (Balb/c mice; 20.0 mg/kg i.p.): 20.8 ± 9.6 | Vertical activity (rearings) (Balb/c mice; 20.0 mg/kg i.p.): 0.1 ± 0.1 | effect on the behavior (locomotor activity) of Balb/c mice in open-field test, in words (Balb/c mice): able to activate the behavior of Balb/c mice | time of remaining on the rotarod (outbred male mice; 0.1 mg/kg): 120 + 0 sec | time of remaining on the rotarod (outbred male mice; 1.0 mg/kg): 120 + 0 sec | time of remaining on the rotarod (outbred male mice; 5.0 mg/kg): 120 + 0 sec | time of remaining on the rotarod (outbred male mice; 10.0 mg/kg): 120 + 0 sec | time of remaining on the rotarod (outbred male mice; 20.0 mg/kg): 120 + 0 sec | number of punished lickings (shocks received in 5-min session) (outbred male rats; 1.0 mg/kg i.p.): 31.6 ± 7.6 | number of punished lickings (shocks received in 5-min session) (outbred male rats; 5.0 mg/kg i.p.): 32.9 ± 5.8 | number of punished lickings (shocks received in 5-min session) (outbred male rats; 10.0 mg/kg i.p.): 36.0 ± 9.4 | number of punished lickings (shocks received in 5-min session) (outbred male rats; 20.0 mg/kg i.p.): 42.3 ± 10.8

— patent publication US6376666B1 (Nauchno-Issledovatelsky Institut Farmakologii Rossiiskoi …, priority 1994, dated 2002)
